Drawing on PubChem BioAssay AID1259411 (Chemical Carcinogenesis Research Information System (CCRIS), 2018), this text covers carcinogen call for three molecules.

Molecules are shown by their SMILES. The source made the active and inactive calls. The rule behind the calls is not given here.

The test system of this series is rodent carcinogenicity bioassays, tumor incidence. The series is described as follows: CCRIS carcinogenicity studies. Summed up: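 Archive of carcinogenicity, mutagenicity, tumor promotion and tumor inhibition results drawn from journals, NCI reports and other sources, expert-reviewed; covers 1985-2011 and is no longer updated.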

On to `CC(C)(c1ccc(OCC2CO2)cc1)c1ccc(OCC2CO2)cc1` (stereo not drawn), for which the carcinogen call runs as follows: (Species: MOUSE, Strain/Sex: CF1/FEMALE, Route: DERMAL, Dose: 0, 1, 10% IN ACETONE 2D/WK FOR 2 YR (STUDY DURATION: 2 YR), Dose: 0, 1, 10% IN ACETONE 2D/WK FOR 2 YR (STUDY DURATION: 2 YR)) “inactive; negative”; (Species: MOUSE, Strain/Sex: CF1/MALE, Route: DERMAL, Dose: 0, 1, 10% IN ACETONE 2D/WK FOR 2 YR (STUDY DURATION: 2 YR), Dose: 0, 1, 10% IN ACETONE 2D/WK FOR 2 YR (STUDY DURATION: 2 YR)) “inactive; negative”; (Species: MOUSE, Strain/Sex: CF-1/FEMALE, Route: DERMAL, Dose: 0, 1, 10% IN ACETONE (TOTAL DOSE 0.2 ML) 2/WK APPLIED TO DORSAL SKIN FOR DURATION OF STUDY (STUDY DURATION: 2 YR), Dose: 0, 1, 10% IN ACETONE (TOTAL DOSE 0.2 ML) 2/WK APPLIED TO DORSAL SKIN FOR DURATION OF STUDY (STUDY DURATION: 2 YR)) “inactive; negative”; (Species: MOUSE, Strain/Sex: CF-1/MALE, Route: DERMAL, Dose: 0, 1, 10% IN ACETONE (TOTAL DOSE 0.2 ML) 2/WK APPLIED TO DORSAL SKIN FOR DURATION OF STUDY (STUDY DURATION: 2 YR), Dose: 0, 1, 10% IN ACETONE (TOTAL DOSE 0.2 ML) 2/WK APPLIED TO DORSAL SKIN FOR DURATION OF STUDY (STUDY DURATION: 2 YR)) “inactive; negative”.

Turning to `COc1ccc(O)cc1`, the carcinogen call reads like this: (Species: RAT, Strain/Sex: F344/FEMALE, Route: ORAL, Dose: 0, 2% IN DIET FOR 104 WK (STUDY DURATION: 104 WK), Tumor Site: Type of Lesion: FORESTOMACH: PAPILLOMA, SQUAMOUS CELL CARCINOMA) “active; positive”; (Species: RAT, Strain/Sex: F344/MALE, Route: ORAL, Dose: 0, 0.4% IN DIET FOR DURATION OF STUDY (STUDY DURATION: 104 WK)) “inactive; negative”; (Species: RAT, Strain/Sex: F344/MALE, Route: ORAL, Dose: 0, 2% IN DIET FOR 104 WK (STUDY DURATION: 104 WK), Tumor Site: Type of Lesion: FORESTOMACH: PAPILLOMA, SQUAMOUS CELL CARCINOMA) “active; positive”.

In the case of `CN(C)CCOC(c1ccccc1)c1ccccc1`, the carcinogen call was “inactive; negative” (Species: MOUSE, Strain/Sex: B6C3F1/FEMALE, Route: ORAL, Dose: 0, 156, 313 PPM IN FEED FOR 103 WK (STUDY DURATION: 106 WK), Dose: 0, 156, 313 PPM IN FEED FOR 103 WK (STUDY DURATION: 106 WK)); “inactive; negative” (Species: MOUSE, Strain/Sex: B6C3F1/MALE, Route: ORAL, Dose: 0, 156, 313 PPM IN FEED FOR 105 WK (STUDY DURATION: 106 WK), Dose: 0, 156, 313 PPM IN FEED FOR 105 WK (STUDY DURATION: 106 WK)); “equivocal” (Species: RAT, Strain/Sex: F344/FEMALE, Route: ORAL, Dose: 0, 156, 313 PPM IN FEED FOR 103 WK (STUDY DURATION: 106 WK), Dose: 0, 156, 313 PPM IN FEED FOR 103 WK (STUDY DURATION: 106 WK), Tumor Site: Type of Lesion: PITUITARY GLAND: ADENOMA); “inactive; negative” (Species: RAT, Strain/Sex: F344/FEMALE, Route: ORAL, Dose: 0, 2000 PPM IN DIET FOR 106 WK (STUDY DURATION: 130 WK)); “equivocal” (Species: RAT, Strain/Sex: F344/MALE, Route: ORAL, Dose: 0, 313, 625 PPM IN FEED FOR 103 WK (STUDY DURATION: 106 WK), Dose: 0, 313, 625 PPM IN FEED FOR 103 WK (STUDY DURATION: 106 WK), Tumor Site: Type of Lesion: BRAIN: ASTROCYTOMA OR GLIOMA, LUNG: ALVEOLAR/BRONCHIOLAR ADENOMA OR CARCINOMA); “inactive; negative” (Species: RAT, Strain/Sex: F344/MALE, Route: ORAL, Dose: 0, 2000 PPM IN DIET FOR 106 WK (STUDY DURATION: 130 WK)).
